Tests used:
[1] = test system: unprenylated Rap1A in MDA-MB-231 breast cancer cells; test: Western blot, unprenylated Rap1A (Example 2); type: cell-based, human; details: MDA-MB-231 cells, 24 h; for effect on alendronate-induced accumulation of unprenylated Rap1A: 10^−4 M alendronate plus clodronate 10^−3 M, geranylgeraniol 25 μM, or cytokines/LPS
Procedure: (§1) Western blot analysis. Cells were cultured on 6-well plates in normal culture medium until near confluency. The cells were then rinsed with sterile PBS and cultured for further 24 h in serum-tree culture medium, in the presence or absence of the indicated bisphosphonates. Some cultures were also treated with 25 μM geranylgeraniol (cold, all trans), 1.0 μg/ml LPS (Sigma; St. Louis, Mo.) 10 ng/ml IL-1β (R&D Systems; Minneapolis, Minn.) or TNF-α (R&D Systems). To study bisphosphonate effects on connexin-43 expression, the cells were cultured for 24 h in serum-free culture medium in the presence of the indicated bisphosphonates or PBS as a vehicle control. Culture medium was then discarded, the cells were quickly lysed and prepared into Western blot samples, as described in Merrell et al. (2000) Breast Cancer Res. Treat. 81, 231-241. After boiling the supernatants in reducing sodium docedyl sulfate (SDS) sample buffer, equal amounts of protein (˜20-50 μg) were loaded per lane and the samples were electrophoresed on 10% SDS polyacrylamide gel and transferred to a nitrocellulose membrane. To detect, unprenylated Rap1A, the blots were incubated overnight at 4° C. with the antibody SC-1482 (Santa Cruz Technology (San Diego, Calif.)), diluted 1:1000 in Tris-buffered saline, 0.1% (v/v) Tween-20 (TEST), and then with peroxidase-conjugated anti-goat serum (Pierce; Rockford, Ill.), diluted 1:1000 in TBST. Total Rap1 was detected from stripped blots in a similar fashion, with the antibody SC-65 (Santa Cruz Technology). The phosphorylation status of p38 was investigated using anti-phospho-p38 (Cell Signaling; Beverly, Mass.) and after stripping of the membrane, with anti-total p38 antibodies (Cell Signaling), according to the manufacturer's instructions. Expression of connexin-43 was detected with a rabbit anti-connexin-43 antibody (Zymed Laboratories, Inc.; San Francisco, Calif.), diluted 1:1000 in TBST. The protein bands were visualized by chemiluminescence using SuperSignal West Pico ECL kit (Pierce Biotechnology, Inc.; Rockford, Ill.).

[2] = test system: p38 phosphorylation in MDA-MB-231 cells; test: Western blot, phosphorylation of p38 (Example 2); type: cell-based, human; details: 10^−3 M
Procedure: as §1, with “To detect, unprenylated Rap1A, the blots were incubated overnight at 4° C. with the antibody SC-1482 (Santa Cruz Technology (San Diego, Calif.)), diluted 1:1000 in Tris-buffered saline, 0.1% (v/v) Tween-20 (TEST), and then with peroxidase-conjugated anti-goat serum (Pierce; Rockford, Ill.), diluted 1:1000 in TBST.” left out, “The phosphorylation status of p38 was investigated using anti-phospho-p38 (Cell Signaling; Beverly, Mass.) and after stripping of the membrane, with anti-total p38 antibodies (Cell Signaling), according to the manufacturer's instructions.” left out, “The protein bands were visualized by chemiluminescence using SuperSignal West Pico ECL kit (Pierce Biotechnology, Inc.; Rockford, Ill.).” left out

J774 cells = test: Cell viability, MTS-assay; type: cell-based; details: for effect of added EGTA on the bisphosphonate's growth inhibitory effect: 1 mM EGTA, N-BP 10^−4 M or clodronate 10^−3 M
Procedure: (§2) Cell viability assays. Cells were plated on 96-well plates at the density of 1×10^3 cells in 100 μl per well in normal culture medium, with or without of the indicated concentrations of the various bisphosphonate combinations and or 1 mM CaCl2, 1 mM EGTA or vehicle and cultured for 48 h. Cell viability was assessed with 3-(4,5-dimethylthiazol-2-yl)-5-(3-carboxy tetrazolium, inner salt (MTS)-assays (CellTiter Aqueous One 96 from Promega; Madison, Wis.) according to the manufacturer's instructions. For each treatment, a PBS-control group was run simultaneously on the same plate. The results for each treatment were calculated as % of the corresponding PBS-group.

MDA-MB-231 cells = test: Cell viability, MTS-assay; type: cell-based, human; details: for effect of added Ca2+ on the bisphosphonate's growth inhibitory effect: 1 mM CaCl2, N-BP 10^−4 M or p-BP 10^−3 M
Procedure: as §2

[3] = test system: unprenylated Rap1A in AB-12 mesothelioma cells; test: Western blot, unprenylated Rap1A (Example 2); type: cell-based, mouse; details: AB-12 cells, 24 h; for effect on nitrogen-containing bisphosphonate-induced accumulation of unprenylated Rap1A: pyrophosphate-resembling : nitrogen-containing bisphosphonate ratio 100:1
Procedure: as §1

AB-12 cells = test: Cell viability, MTS-assay; type: cell-based, mouse; details: for effect of added Ca2+ on the bisphosphonate's growth inhibitory effect: 1 mM CaCl2, N-BP 10^−4 M or p-BP 10^−3 M
Procedure: as §2

[4] = test system: p38 phosphorylation in AB-12 cells; test: Western blot, phosphorylation of p38 (Example 2); type: cell-based, mouse; details: excess, added simultaneously
Procedure: as §1, with “To detect, unprenylated Rap1A, the blots were incubated overnight at 4° C. with the antibody SC-1482 (Santa Cruz Technology (San Diego, Calif.)), diluted 1:1000 in Tris-buffered saline, 0.1% (v/v) Tween-20 (TEST), and then with peroxidase-conjugated anti-goat serum (Pierce; Rockford, Ill.), diluted 1:1000 in TBST.” left out, “The phosphorylation status of p38 was investigated using anti-phospho-p38 (Cell Signaling; Beverly, Mass.) and after stripping of the membrane, with anti-total p38 antibodies (Cell Signaling), according to the manufacturer's instructions.” left out, “The protein bands were visualized by chemiluminescence using SuperSignal West Pico ECL kit (Pierce Biotechnology, Inc.; Rockford, Ill.).” left out

[5] = Tumor uptake of Tc99m-medronate, biodistribution; type: in vivo; details: nude mice, i.v.
Procedure: Tumor uptake of Tc99m-medronate. To investigate accumulation of the bone scanning agent (Tc99m-medronate) into the subcutaneous tumors, nude mice were first inoculated subcutaneously with AB-12 or MDA-MB-231 cells (10^6 cells in 100 μl of sterile PBS) and the tumors were allowed to form for 3-4 weeks. Tc99m-medronate (MDP-Bracco™; Bracco Diagnostics Inc.; Princeton, N.J.) was then injected into the tail veins of the mice (˜800-1000 μCi per mouse) in 100 μl. High-resolution pinhole SPECT/CT imaging studies (X-SPECT system, GammaMedica, Inc.; Northridge, Calif.) and biodistribution analyses were performed in nude mice with xenografted rumors to measure in vivo tumor retention of Tc99 medronate following i.v. injection. For SPECT imaging, a total of 64 projections were acquired with a 30-sec acquisition time per projection, using a pinhole collimator with a 1-mm tungsten pinhole insert. […] The dose retention, or % Injected Dose per gram, (% ID/g) of each tissue was calculated by measuring the radioactivity in the tissue using a gamma counter, decay correcting the count rate data to the Tc99m-medronate injection time and normalizing to the total injected dose in the animal as well as the tissue weight. Each animal's dose was determined by measuring the dosing syringe (AtomLab 100 dose calibrator; Biodex Medical Systems; Shirley, N.Y.) before and after injecting the mouse. […]

## CC(C)=CCC/C(C)=C/CC/C(C)=C/CC/C(C)=C/CO [geranylgeraniol]
[1]
  effect on alendronate-induced accumulation of unprenylated Rap1A: reduced

## O=P(O)(O)C(Cl)(Cl)P(=O)(O)O [clodronate]
[2]
  effect on zoledronate-induced (10^−4 M) p38 phosphorylation: blocked
J774 cells
  effect of added EGTA on the bisphosphonate's growth inhibitory effect: reversed
J774 cells; 10^−3 M alone, P<0.001 vs PBS-control
  cell viability: highest sensitivity
J774 cells; clodronate 10^−3 M + 1 mM CaCl2
  cell viability in combination with 1 mM CaCl2: toxic
MDA-MB-231 cells
  effect of added Ca2+ on the bisphosphonate's growth inhibitory effect: not
[3]
  accumulation of unprenylated Rap1A: no effect
  effect on nitrogen-containing bisphosphonate-induced accumulation of unprenylated Rap1A: completely blocked
[1]
  effect on alendronate-induced accumulation of unprenylated Rap1A: reduced
  accumulation of unprenylated Rap1A: no effect
AB-12 cells
  effect of added Ca2+ on the bisphosphonate's growth inhibitory effect: augmented
[4]
  effect on nitrogen-containing bisphosphonate (risedronate or zoledronate)-induced p38 phosphorylation: blocked

## O=P(O)(O)CP(=O)(O)O [Tc99m-medronate, metal not drawn]
[5]; % dose retention in various tissues
  tissue with the highest accumulation: bones: highest proportion
[5]; tissues ~8 h after injection, % ID/g normalized to blood, P<0.05
  accumulation (% dose retention) in AB-12 mesothelioma tumors compared with MDA-MB-231 breast cancer tumors: significantly higher

## IL-1β: cytokine (R&D Systems), molecule completely unrelated to bisphosphonates
[1]
  effect on alendronate-induced accumulation of unprenylated Rap1A: not blocked

## TNF-α
[1]
  effect on alendronate-induced accumulation of unprenylated Rap1A: not blocked

## NCCCC(O)(P(=O)(O)O)P(=O)(O)O [alendronate]
J774 cells
  effect of added EGTA on the bisphosphonate's growth inhibitory effect: reversed
MDA-MB-231 cells; 1 mM EGTA, N-BP 10^−4 M
  effect of added EGTA on the bisphosphonate's growth inhibitory effect: reversed
MDA-MB-231 cells; 10^−4 M, P<0.001
  cell viability: significant decrease in cell viability
[3]
  accumulation of unprenylated Rap1A: dose-dependent accumulation
[1]
  accumulation of unprenylated Rap1A: dose-dependent accumulation
AB-12 cells; 1 mM EGTA, N-BP 10^−4 M
  effect of added EGTA on the bisphosphonate's growth inhibitory effect: reversed
AB-12 cells; 10^−4 M, P<0.001
  cell viability: significant decrease in cell viability

## CC(O)(P(=O)(O)O)P(=O)(O)O [etidronate]
[2]
  effect on zoledronate-induced (10^−4 M) p38 phosphorylation: blocked
MDA-MB-231 cells
  effect of added Ca2+ on the bisphosphonate's growth inhibitory effect: not
[3]
  accumulation of unprenylated Rap1A: no effect
  effect on nitrogen-containing bisphosphonate-induced accumulation of unprenylated Rap1A: completely blocked
[1]
  accumulation of unprenylated Rap1A: no effect
AB-12 cells
  effect of added Ca2+ on the bisphosphonate's growth inhibitory effect: augmented
[4]
  effect on nitrogen-containing bisphosphonate (risedronate or zoledronate)-induced p38 phosphorylation: blocked

From US20090075941A1, “TREATING NEOPLASMS” (THE UAB RESEARCH FOUNDATION, priority 2006, published 2009)
